Source: ChEMBL document CHEMBL1139635, “Synthesis, antitumor evaluation and DNA photocleaving activity of novel methylthiazonaphthalimides with aminoalkyl side chains” (Bioorg Med Chem Lett, 2005)

What was measured:
Nucleic Acid = assay: Scatchard binding constant towards calf thymus DNA; assay type: functional; conditions: Bos taurus
P388 = assay: Cytotoxic concentration against murine P388 leukemia cell line growth determined by microculture tetrazolium-formazan method; assay type: functional, cell-based; conditions: Mus musculus
A549 = assay: Cytotoxic concentration against human A549 lung cancer cell line determined by sulforhodamine B dye-staining method; assay type: functional, cell-based

| SMILES | Binding constant (Nucleic Acid) | IC50 (P388) | IC50 (A549) |
| --- | --- | --- | --- |
| CCN(CC)CCN1C(=O)c2cccc3c2c(cc2nc(C)sc23)C1=O | 166000 M⁻¹ | 0.64 µM | 0.158 µM |
| Cc1nc2cc3c4c(cccc4c2s1)C(=O)N(CCCN(C)C)C3=O | 666000 M⁻¹ | 1.7 µM | 1.8 µM |
| Cc1nc2cc3c4c(cccc4c2s1)C(=O)N(CCN1CCNCC1)C3=O | 226000 M⁻¹ | 1.13 µM | 0.0208 µM |
| Cc1nc2cc3c4c(cccc4c2s1)C(=O)N(CCN(C)C)C3=O | 231000 M⁻¹ | 0.031 µM | 0.0828 µM |
| CN(C)CCN1C(=O)c2cccc3cc(N)cc(c23)C1=O [AMONAFIDE] | – | 0.2 µM | – |
